From paper PMC11062922 (Nature Chemical Biology, 2023)

Columns and labels:
ACOX1 = target: T1, ACOX1 (Homo sapiens, UniProt Q15067); experiment: Kinobeads two-dose competition binding: ACOX1; settings: sheet CATDS matrix 2; Gene Name ACOX1;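 also: competition of compounds with immobilized broad-spectrum kinase inhibitor beads in cell lysate at 100 and 1,000 nM, 45 min at 4 °C, bead-bound protein quantified by label-free MS versus DMSO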
T1 construct: endogenous in cells
T1 sequence (Q15067 1-660): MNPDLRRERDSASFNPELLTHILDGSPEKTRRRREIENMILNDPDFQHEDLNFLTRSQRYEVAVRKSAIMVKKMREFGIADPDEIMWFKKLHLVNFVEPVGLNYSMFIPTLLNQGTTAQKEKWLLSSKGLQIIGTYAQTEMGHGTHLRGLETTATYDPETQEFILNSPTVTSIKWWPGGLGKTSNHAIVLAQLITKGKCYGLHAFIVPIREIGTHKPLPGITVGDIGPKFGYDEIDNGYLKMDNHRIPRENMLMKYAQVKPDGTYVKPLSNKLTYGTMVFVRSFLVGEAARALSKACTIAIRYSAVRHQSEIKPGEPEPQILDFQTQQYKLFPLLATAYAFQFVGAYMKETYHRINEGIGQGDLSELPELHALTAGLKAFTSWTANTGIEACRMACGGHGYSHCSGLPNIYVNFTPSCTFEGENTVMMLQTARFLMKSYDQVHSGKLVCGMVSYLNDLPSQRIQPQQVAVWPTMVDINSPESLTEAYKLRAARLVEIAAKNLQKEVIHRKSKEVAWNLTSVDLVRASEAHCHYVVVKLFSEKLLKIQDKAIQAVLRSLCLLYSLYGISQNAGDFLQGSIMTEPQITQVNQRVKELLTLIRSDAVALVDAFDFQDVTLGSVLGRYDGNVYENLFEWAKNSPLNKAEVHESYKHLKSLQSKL

ACAD11 = target: T2, ACAD11 (Homo sapiens, UniProt Q709F0); experiment: Kinobeads two-dose competition binding: ACAD11; settings: sheet CATDS matrix 2; Gene Name ACAD11
T2 construct: endogenous in cells
T2 sequence (Q709F0 1-780): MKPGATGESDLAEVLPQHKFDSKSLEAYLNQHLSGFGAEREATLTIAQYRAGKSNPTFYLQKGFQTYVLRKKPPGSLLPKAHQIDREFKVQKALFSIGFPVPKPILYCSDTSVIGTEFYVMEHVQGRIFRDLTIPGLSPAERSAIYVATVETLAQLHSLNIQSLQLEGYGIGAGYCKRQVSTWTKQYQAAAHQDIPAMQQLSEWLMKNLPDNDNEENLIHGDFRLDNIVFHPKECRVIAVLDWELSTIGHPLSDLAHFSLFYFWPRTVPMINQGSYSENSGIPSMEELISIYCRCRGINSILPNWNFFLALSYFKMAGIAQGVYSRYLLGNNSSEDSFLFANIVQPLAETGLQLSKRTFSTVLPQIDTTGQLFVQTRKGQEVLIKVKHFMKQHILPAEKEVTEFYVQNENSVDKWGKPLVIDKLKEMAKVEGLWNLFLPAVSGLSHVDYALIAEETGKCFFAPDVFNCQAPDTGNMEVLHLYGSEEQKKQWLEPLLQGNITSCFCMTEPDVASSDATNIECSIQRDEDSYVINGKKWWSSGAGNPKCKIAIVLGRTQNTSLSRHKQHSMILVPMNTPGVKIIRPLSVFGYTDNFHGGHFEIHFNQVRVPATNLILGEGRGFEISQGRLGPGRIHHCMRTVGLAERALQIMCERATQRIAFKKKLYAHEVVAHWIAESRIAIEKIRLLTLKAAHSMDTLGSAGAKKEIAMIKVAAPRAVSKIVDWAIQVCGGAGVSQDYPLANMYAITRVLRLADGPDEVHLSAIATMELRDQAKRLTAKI

ABL2 [1] = target: T3, ABL2 (Homo sapiens, UniProt P42684); experiment: Kinobeads two-dose competition binding: ABL2; settings: sheet CATDS matrix 2; Gene Name ABL2
T3 construct: endogenous in cells
T3 sequence (P42684 whole entry): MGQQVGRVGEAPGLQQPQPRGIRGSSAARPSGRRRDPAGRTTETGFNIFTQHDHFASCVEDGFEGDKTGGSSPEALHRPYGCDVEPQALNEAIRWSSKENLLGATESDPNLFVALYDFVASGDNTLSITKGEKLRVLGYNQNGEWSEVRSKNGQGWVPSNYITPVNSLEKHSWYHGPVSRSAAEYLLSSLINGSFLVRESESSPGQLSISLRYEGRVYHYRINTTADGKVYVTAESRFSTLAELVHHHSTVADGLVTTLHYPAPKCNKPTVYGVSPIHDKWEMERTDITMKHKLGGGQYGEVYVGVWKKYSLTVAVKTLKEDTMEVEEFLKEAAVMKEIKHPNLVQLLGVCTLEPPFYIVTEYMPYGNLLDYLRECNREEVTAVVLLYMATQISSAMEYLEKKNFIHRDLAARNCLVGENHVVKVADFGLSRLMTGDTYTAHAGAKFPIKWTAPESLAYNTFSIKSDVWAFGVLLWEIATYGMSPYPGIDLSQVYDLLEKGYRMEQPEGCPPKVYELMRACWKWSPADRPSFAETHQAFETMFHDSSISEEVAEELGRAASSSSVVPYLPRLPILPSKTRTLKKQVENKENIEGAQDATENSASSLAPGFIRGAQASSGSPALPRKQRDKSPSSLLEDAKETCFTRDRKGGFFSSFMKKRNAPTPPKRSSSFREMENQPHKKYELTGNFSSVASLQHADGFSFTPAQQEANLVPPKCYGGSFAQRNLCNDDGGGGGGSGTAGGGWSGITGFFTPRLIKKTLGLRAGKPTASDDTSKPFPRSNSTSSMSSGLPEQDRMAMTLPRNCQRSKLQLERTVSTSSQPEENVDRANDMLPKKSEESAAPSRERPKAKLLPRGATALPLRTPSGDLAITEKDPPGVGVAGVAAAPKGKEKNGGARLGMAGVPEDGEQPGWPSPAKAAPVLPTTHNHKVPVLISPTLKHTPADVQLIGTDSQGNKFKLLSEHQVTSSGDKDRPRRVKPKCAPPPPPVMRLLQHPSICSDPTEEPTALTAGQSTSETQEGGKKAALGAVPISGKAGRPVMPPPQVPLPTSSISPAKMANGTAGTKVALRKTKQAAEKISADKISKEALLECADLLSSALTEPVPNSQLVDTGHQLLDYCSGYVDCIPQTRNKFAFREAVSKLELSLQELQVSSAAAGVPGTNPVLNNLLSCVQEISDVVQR

ABL1 [2] = target: T4, ABL1 (Homo sapiens, UniProt P00519); experiment: Kinobeads two-dose competition binding: ABL1; settings: sheet CATDS matrix 2; Gene Name ABL1
T4 sequence (P00519 28-1130 limits assumed): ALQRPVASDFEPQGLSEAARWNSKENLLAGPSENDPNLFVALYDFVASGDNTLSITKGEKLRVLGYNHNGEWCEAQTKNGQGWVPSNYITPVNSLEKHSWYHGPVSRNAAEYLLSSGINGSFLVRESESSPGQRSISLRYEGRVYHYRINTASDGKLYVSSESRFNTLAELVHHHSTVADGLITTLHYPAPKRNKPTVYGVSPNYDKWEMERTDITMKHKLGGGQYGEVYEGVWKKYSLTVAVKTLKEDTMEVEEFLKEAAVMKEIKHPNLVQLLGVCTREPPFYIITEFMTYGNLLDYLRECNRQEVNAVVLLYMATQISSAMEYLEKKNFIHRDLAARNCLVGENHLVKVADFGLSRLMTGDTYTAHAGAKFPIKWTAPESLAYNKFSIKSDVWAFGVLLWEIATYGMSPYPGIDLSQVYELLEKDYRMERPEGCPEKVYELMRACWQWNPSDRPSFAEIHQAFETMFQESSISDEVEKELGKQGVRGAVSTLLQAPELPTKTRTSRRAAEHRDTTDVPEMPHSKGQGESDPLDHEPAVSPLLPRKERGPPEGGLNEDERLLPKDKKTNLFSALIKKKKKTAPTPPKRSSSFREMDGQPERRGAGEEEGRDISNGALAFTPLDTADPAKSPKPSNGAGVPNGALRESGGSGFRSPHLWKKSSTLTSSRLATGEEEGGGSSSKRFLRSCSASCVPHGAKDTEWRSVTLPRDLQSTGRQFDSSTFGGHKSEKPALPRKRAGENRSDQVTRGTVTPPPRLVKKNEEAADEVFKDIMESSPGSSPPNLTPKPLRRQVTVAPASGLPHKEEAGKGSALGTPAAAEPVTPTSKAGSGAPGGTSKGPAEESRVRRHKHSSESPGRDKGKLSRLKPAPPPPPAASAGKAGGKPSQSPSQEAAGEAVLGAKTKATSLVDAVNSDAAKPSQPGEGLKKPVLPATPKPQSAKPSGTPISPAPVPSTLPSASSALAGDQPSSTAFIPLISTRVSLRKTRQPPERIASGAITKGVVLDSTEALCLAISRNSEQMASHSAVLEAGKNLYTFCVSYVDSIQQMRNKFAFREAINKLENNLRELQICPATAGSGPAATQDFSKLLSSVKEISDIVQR

AAK1 = target: T5, AAK1 (Homo sapiens, UniProt Q2M2I8); experiment: Kinobeads two-dose competition binding: AAK1; settings: for CATDS: sheet CATDS matrix 2, Gene Name AAK1; for potency estimated from few doses: sheet "Kinobeads Drugmatrix - all", unit inferred, same values below 1000 recur in sheet "nanomolar", read-out: Kinobeads Drugmatrix - all: apparent Kd, AAK1;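 as to all read-outs here: kinobeads competition pulldown from cell lysate, compound preincubated 45 min at 4 °C, bead-bound protein measured by label-free mass spectrometry against DMSO vehicle control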
T5 construct: to maximize the representation of endogenous proteins; endogenous in cells
T5 sequence (Q2M2I8 whole entry): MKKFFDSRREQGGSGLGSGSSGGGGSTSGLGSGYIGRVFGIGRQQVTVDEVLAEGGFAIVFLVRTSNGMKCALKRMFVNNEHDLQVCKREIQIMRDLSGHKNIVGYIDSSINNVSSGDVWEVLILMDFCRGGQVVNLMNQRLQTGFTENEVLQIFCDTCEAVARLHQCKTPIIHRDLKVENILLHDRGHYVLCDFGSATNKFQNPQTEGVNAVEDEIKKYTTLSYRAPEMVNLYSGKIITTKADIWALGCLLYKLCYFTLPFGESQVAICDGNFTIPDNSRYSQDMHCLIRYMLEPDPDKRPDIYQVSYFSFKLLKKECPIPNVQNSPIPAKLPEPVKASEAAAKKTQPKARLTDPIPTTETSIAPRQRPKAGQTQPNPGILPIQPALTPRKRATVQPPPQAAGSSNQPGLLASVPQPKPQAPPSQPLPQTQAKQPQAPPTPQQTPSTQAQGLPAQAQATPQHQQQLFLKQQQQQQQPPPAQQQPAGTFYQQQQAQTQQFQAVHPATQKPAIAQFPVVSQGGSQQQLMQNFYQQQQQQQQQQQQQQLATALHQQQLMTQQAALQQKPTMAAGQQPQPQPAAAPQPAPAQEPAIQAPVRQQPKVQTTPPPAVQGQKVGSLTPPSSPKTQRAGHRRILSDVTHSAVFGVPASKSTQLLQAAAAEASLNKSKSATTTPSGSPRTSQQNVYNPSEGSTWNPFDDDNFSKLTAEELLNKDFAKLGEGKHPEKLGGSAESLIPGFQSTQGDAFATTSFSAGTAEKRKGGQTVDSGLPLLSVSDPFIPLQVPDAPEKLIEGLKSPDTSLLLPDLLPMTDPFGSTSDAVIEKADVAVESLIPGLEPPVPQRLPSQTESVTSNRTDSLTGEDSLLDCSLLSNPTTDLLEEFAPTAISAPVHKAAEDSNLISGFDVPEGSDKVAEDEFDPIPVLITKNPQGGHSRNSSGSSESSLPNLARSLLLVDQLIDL

[3] = tested on: endogenous kinases and other proteins enriched by Kinobeads from mixed lysates of K-562, COLO-205, MV-4-11, SK-N-BE(2) and OVCAR-8; experiment: Kinobeads competition binding profiling, two doses (100 nM and 1 µM); design: species or system human; settings: for selectivity in the Kinobeads assay (CATDSmost potent): in words; for detection of the designated target by Kinobeads: previous chemical probes;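 as to all read-outs here: inhibitor preincubated 45 min at 4 °C in cell lysate, then bead pulldown. Bound protein quantified by label-free mass spectrometry relative to DMSO vehicle control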
ABL2 [4] = target: T3, ABL2; experiment: Kinobeads two-dose competition binding: ABL2; settings: sheet "Kinobeads Drugmatrix - all"; unit inferred; read-out: Kinobeads Drugmatrix - all: apparent Kd, ABL2
ABL1 [5] = target: T4, ABL1; experiment: Kinobeads two-dose competition binding: ABL1; settings: sheet "Kinobeads Drugmatrix - all"; unit inferred; read-out: Kinobeads Drugmatrix - all: apparent Kd, ABL1

Structure (SMILES)	CATDS (ACOX1)	CATDS (ACAD11)	CATDS (ABL2 [1])	CATDS (ABL1 [2])	CATDS (AAK1)	selectivity in the Kinobeads assay (CATDSmost potent) [3]	detection of the designated target by Kinobeads [3]	chemical probe criteria (Kdapp < 1 µM and CATDSmost potent > 0.5) ([3]; Kinobeads data)	potency estimated from few doses (ABL2 [4])	potency estimated from few doses (AAK1)	potency estimated from few doses (ABL1 [5])	number of targets in the Kinobead assay ([3]; two-dose Kinobeads)
CCOc1cc(C(=O)N2CCC(N3CCN(C)CC3)CC2)ccc1Nc1ncc2c(n1)N(C1CCCC1)c1ccccc1C(=O)N2C [ERK5-IN-1, reference compound]	0	0	0	0	0	very selective						
O=C(NCCO)c1cccc(-c2cc(Nc3ccc(OC(F)(F)F)cc3)ncn2)c1 [GNF-5, reference compound]							failed to reveal their targets					
CC(C)(C)S(=O)(=O)c1ccc2nccc(Nc3n[nH]c4ccc(F)cc34)c2c1 [GSK583, reference compound]								fulfilled our criteria				
Clc1cc(Cl)cc(Nc2ccnc(Nc3cc(Cl)cc(Cl)c3)n2)c1 [GSK175726A]	0	0	0.1551	0.026	0.01178				7.68 nM	460 nM	83.2 nM	
CN1CCc2ccc(Nc3nccc(-c4c(-c5cccc(NC(=O)c6c(F)cccc6F)c5)nc5ccccn45)n3)cc2C1 [GSK1010829B]	0	0	0.05238	0	0				515 nM		> 1000 nM	
CNC(=O)c1ccccc1Nc1nc(Nc2cccc(CS(C)(=O)=O)c2)ncc1C [GSK1520489A]	0	0	0.01375	0.01362	0				389 nM		401 nM	
COc1ccc(Nc2ncc(C#N)c(Nc3ccccc3C(N)=O)n2)cc1N1CCN(C)CC1 [GSK1558669A]	0	0	0.008409	0.01209	0.01049				334 nM	164 nM	112 nM	
CC(=O)N1CCN(c2ccc(Nc3nccc(-c4sc(C(C)C)nc4-c4cccc(NS(=O)(=O)c5ccccc5)c4)n3)cn2)CC1 [GSK1645872A]	0	0	0.06803	0.02989	0				166 nM		746 nM	
CC(C)c1nc(-c2cccc(NS(=O)(=O)c3ccccc3)c2)c(-c2ccnc(Nc3ccc4c(c3)CN(C)CC4)n2)s1 [GSK1649598A]	0	0	0.03972	0.02015	0				93.8 nM		368 nM	
CC(=O)N1CCN(c2ccc(Nc3nccc(-c4sc(C(C)C)nc4-c4cccc(NS(=O)(=O)c5cccc(Cl)c5)c4)n3)cn2)CC1 [GSK1660437A]	0	0	0.07869	0	0				351 nM			
CC(C)c1nc(-c2cccc(NS(=O)(=O)c3c(F)cccc3F)c2)c(-c2ccnc(Nc3ccc(N4CCOCC4)nc3)n2)s1 [GSK1723980B]	0	0	0.05939	0.0244	0				61.3 nM		301 nM	
CC(C)c1nc(-c2ccc(F)c(NS(=O)(=O)c3c(F)cccc3F)c2)c(-c2ccnc(Nc3ccc(N4CCOCC4)nc3)n2)s1 [GSK1804250A]	0	0	0.1009	0.03302	0				126 nM		970 nM	
CC(C)c1nc(-c2cccc(NS(=O)(=O)c3c(F)cccc3F)c2F)c(-c2ccnc(Nc3ccc(N4CCOCC4)nc3)n2)s1 [GSK2008607A]	0	0	0.07581	0.02525	0				101 nM		706 nM	
O=C(O[C@H]1CN[C@H](C#Cc2cc3ncnc(Nc4ccc(OCc5cccc(F)c5)c(Cl)c4)c3s2)C1)N1CCOCC1 [GW869810X]						very selective						
COC[C@@H](C)N[C@H]1CC[C@H](Nc2cc(-c3cccc(NCC4(C#N)CCOCC4)n3)c(Cl)cn2)CC1 [NVP-2, reference compound]							failed to reveal their targets					
CN(C)C/C=C/C(=O)Nc1ccc(C(=O)N2CCC[C@@H](Nc3ncc(Cl)c(-c4c[nH]c5ccccc45)n3)C2)cc1 [THZ531, reference compound]							failed to reveal their targets					
CCC(=O)Nc1cccc(Oc2nc(Nc3ccc(N4CCN(C)CC4)cc3OC)ncc2Cl)c1 [WZ4003, reference compound]						poor selectivity						
CN1C(=O)c2ccccc2N(C)c2nc(Nc3cnn(C4CCNCC4)c3)ncc21 [XMD-17-51, reference compound]												~50
